The values that follow come from patent US6500853B1, “Inhibitors of phospholipase enzymes” (Genetics Institute, LLC, priority 1998, dated 2002).

For test [1], the system named is Rat Carrageenan-Induced Footpad Edema. Kind of test: Rat Carrageenan-Induced Footpad Edema Test. The class given is in vivo, male Sprague Dawley rats. The conditions noted are these: footpad volume 3 hours after carrageenan; for inhibition in vivo at 2 mg/kg / inhibition in vivo at 10 mg/kg / inhibition in vivo at 5 mg/kg: Rattus norvegicus, 3 h, read-out: PERCENT INHIBITION; for inhibition in vivo at 2 mg/kg / inhibition in vivo at 10 mg/kg: po; for inhibition in vivo at 2 mg/kg / inhibition in vivo at 10 mg/kg / PERCENT INHIBITION: PO; for inhibition in vivo at 5 mg/kg: iv, IV. For orientation: In the carrageenan paw model, swelling and tenderness develop within hours.

The next test concerns the target T1, cPLA2 (Homo sapiens, UniProt P47712).
T1 sequence (P47712 1-749): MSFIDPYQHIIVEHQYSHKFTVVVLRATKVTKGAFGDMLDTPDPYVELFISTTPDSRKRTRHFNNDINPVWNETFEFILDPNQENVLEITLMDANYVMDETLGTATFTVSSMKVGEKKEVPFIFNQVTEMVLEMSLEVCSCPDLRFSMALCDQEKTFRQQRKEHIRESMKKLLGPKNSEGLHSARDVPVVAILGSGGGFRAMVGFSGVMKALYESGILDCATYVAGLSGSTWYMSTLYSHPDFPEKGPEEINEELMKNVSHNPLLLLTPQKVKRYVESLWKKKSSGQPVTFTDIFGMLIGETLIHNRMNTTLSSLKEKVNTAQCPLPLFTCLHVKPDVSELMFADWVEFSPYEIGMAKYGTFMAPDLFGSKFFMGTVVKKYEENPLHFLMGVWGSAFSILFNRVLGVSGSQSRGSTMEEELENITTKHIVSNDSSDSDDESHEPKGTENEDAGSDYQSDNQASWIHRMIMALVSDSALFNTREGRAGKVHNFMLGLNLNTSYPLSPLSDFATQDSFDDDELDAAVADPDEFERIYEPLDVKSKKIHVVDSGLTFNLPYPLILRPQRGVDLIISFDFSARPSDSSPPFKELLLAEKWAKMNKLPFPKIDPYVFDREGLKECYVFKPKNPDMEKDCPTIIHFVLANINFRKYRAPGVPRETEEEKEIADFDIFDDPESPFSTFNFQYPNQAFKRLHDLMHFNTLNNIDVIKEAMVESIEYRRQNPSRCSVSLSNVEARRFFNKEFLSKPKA
Put plainly: Coumarin Assay (cPLA2 inhibition). The class given is biochemical. The conditions noted are these: for inhibition at 80 µM: CONCENTRATION 80 micromolar; for inhibition at 10 µM: CONCENTRATION 10 micromolar; for inhibition at 1.8 µM: CONCENTRATION 1.8 micromolar; for inhibition at 2.4 µM: CONCENTRATION 2.4 micromolar; for inhibition at 7 µM: CONCENTRATION 7 micromolar; for inhibition at 2.5 µM: CONCENTRATION 2.5 micromolar. The essentials: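 Percent inhibition at the stated concentration, from the rate of 460 nm emission rise (360 nm excitation) per minute. Reaction started by adding 4 μg enzyme to compound and 60 μM 7-hydroxycoumarinyl 6-heptenoate in Hepes buffer pH 7.5 with 1 mM EDTA.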

SMILES strings stand for the structures.

For orientation: inhibition means the relative decrease from the control value, in per cent. Regarding `O=C(O)c1cccc(NC(=O)c2cn(C(c3ccccc3)c3ccccc3)c3ccc(NC(=O)C4CCCC4)cc23)c1` [Example 100, 3-[({1-benzhydryl-5-[(cyclopentylcarbonyl)amino]-1H-indol-3-yl}carbonyl)amino]benzoic acid], the inhibition in vivo at 2 mg/kg in test [1] (2 mg/Kg) was 6.14%. Moreover, the inhibition in vivo at 10 mg/kg in test [1] (10 mg/Kg) was found to be 20.7%. The inhibition at 24 µM on cPLA2 (CONCENTRATION 24 micromolar, read-out: PERCENT INHIBITION @) amounted to 50%. On cPLA2 (CONCENTRATION 30 micromolar, read-out: PERCENT INHIBITION @), the inhibition at 30 µM is 50%. Besides, the inhibition at 80 µM on cPLA2 (read-out: PERCENT INHIBITION @) came to 50%.

For the molecule `O=C(Nc1cccc(C(=O)O)c1)C(=O)c1cn(C(c2ccccc2)c2ccccc2)c2ccccc12` [Example 61, 3-{[2-(1-benzhydryl-1H-indol-3-yl)-2-oxoacetyl]amino}benzoic acid], the inhibition in vivo at 5 mg/kg in test [1] worked out at 18.3%. Further, the inhibition at 10 µM at cPLA2 (read-out: PERCENT INHIBITION @) was found to be 50%. Moreover, the inhibition at 12.5 µM at cPLA2 (CONCENTRATION 12.5 micromolar, read-out: PERCENT INHIBITION @) was 54%.

As to `COc1cc(C(=O)NS(=O)(=O)C(F)(F)F)ccc1Cc1cn(C(c2ccccc2)c2ccccc2)c2ccc(NC(=O)OCc3ccccc3)cc12` [Example 49, benzyl N-{1-benzhydryl-3-[2-methoxy-4-({[(trifluoromethyl)sulfonyl]amino}carbonyl)benzyl]-1H-indol-5-yl}carbamate], the inhibition in vivo at 5 mg/kg in test [1] stood at 18%. Further, at cPLA2 (CONCENTRATION 1.5 micromolar, read-out: PERCENT INHIBITION @), the inhibition at 1.5 µM came to 50%. Moreover, on cPLA2 (read-out: PERCENT INHIBITION @), the inhibition at 1.8 µM worked out at 50%. For the same molecule, the inhibition at 2.3 µM at cPLA2 (CONCENTRATION 2.3 micromolar, read-out: PERCENT INHIBITION @) came out at 50%.

With `Cc1ccccc1S(=O)(=O)NC(=O)c1ccc(Cc2cn(C(c3ccccc3)c3ccccc3)c3ccc(NC(=O)OC4CCCC4)cc23)cc1` [Example 53, cyclopentyl N-{1-benzhydryl-3-[4-({[(2-methylphenyl)sulfonyl]1amino}carbonyl)benzyl]-1H-indol-5-yl}carbamate], the figures for the “PERCENT INHIBITION” value in test [1] (2 mg/Kg) and in test [1] (10 mg/Kg) were −1.81% and 11.35%, respectively. Further, the “PERCENT INHIBITION @” value at cPLA2 (CONCENTRATION 11 micromolar) and on cPLA2 (CONCENTRATION 15.5 micromolar) was 50% in each case.

As to `O=C(Cc1cn(Cc2ccc(Cc3ccccc3)cc2)c2ccc(OCc3ccccc3)cc12)Nc1cccc(C(=O)O)c1` [Example 105, 3-({2-[1-(4-benzylbenzyl)-5-(benzyloxy)-1H-indol-3-yl]acetyl}amino)benzoic acid], the inhibition in vivo at 5 mg/kg in test [1] is 1.51%. Also, on cPLA2 (read-out: PERCENT INHIBITION @), the inhibition at 2.4 µM came out at 50%, the inhibition at 7 µM stood at 50% and the inhibition at 10 µM was found to be 74%.

In the case of `Cc1ccccc1S(=O)(=O)NC(=O)c1cn(C(c2ccccc2)c2ccccc2)c2ccc(NC(=O)C3CCCC3)cc12` [Example 102, N-[1-benzhydryl-3-({[(2-methylphenyl)sulfonyl]amino}carbonyl)-1H-indol-5-yl]cyclopentanecarboxamide], in test [1] (2 mg/Kg), the inhibition in vivo at 2 mg/kg is 2.56%. The inhibition in vivo at 10 mg/kg in test [1] (10 mg/Kg) came out at 8.48%. Moreover, at cPLA2 (CONCENTRATION 20 micromolar, read-out: PERCENT INHIBITION @), the inhibition at 20 µM was found to be 31%. For the same molecule, the inhibition at 48 µM at cPLA2 (CONCENTRATION 48 micromolar, read-out: PERCENT INHIBITION @) came out at 50%.

As for `Cc1ccccc1S(=O)(=O)NC(=O)c1ccc(Cc2cn(C(c3ccccc3)c3ccccc3)c3ccc(Br)cc23)cc1` [Example 57, N-{4-[(1-benzhydryl-5-bromo-1H-indol-3-yl)methyl]benzoyl}-2-methylbenzenesulfonamide], the inhibition in vivo at 2 mg/kg in test [1] (2 mg/Kg) was found to be 10.4%. In addition, the inhibition in vivo at 10 mg/kg in test [1] (10 mg/Kg) stood at 20.7%. For the same molecule, the inhibition at 1.05 µM at cPLA2 (CONCENTRATION 1.05 micromolar, read-out: PERCENT INHIBITION @) was 50%. On cPLA2 (CONCENTRATION 1.38 micromolar, read-out: PERCENT INHIBITION @), the inhibition at 1.38 µM stood at 50%. On cPLA2 (CONCENTRATION 1.4 micromolar, read-out: PERCENT INHIBITION @), the inhibition at 1.4 µM amounted to 50%.

In the case of `COc1cc(C(=O)NS(=O)(=O)C(F)(F)F)ccc1Cc1cn(C(c2ccccc2)c2ccccc2)c2ccc(NS(=O)(=O)Cc3ccccc3)cc12` [Example 45, N-[4-({1-benzhydryl-5-[(benzylsulfonyl)amino]-1H-indol-3-yl}methyl)-3-methoxybenzoyl](trifluoro)methanesulfonamide], in test [1], the inhibition in vivo at 5 mg/kg is 10.2%. On cPLA2 (CONCENTRATION 1.75 micromolar, read-out: PERCENT INHIBITION @), the inhibition at 1.75 µM is 50%. Further, at cPLA2 (read-out: PERCENT INHIBITION @), the inhibition at 1.8 µM turned out to be 50% and the inhibition at 2.5 µM came to 74%. Besides, on cPLA2 (CONCENTRATION 1.9 micromolar, read-out: PERCENT INHIBITION @), the inhibition at 1.9 µM is 50%. The inhibition at 2 µM on cPLA2 (CONCENTRATION 2 micromolar, read-out: PERCENT INHIBITION @) is 50%. Besides, the inhibition at 2.1 µM on cPLA2 (CONCENTRATION 2.1 micromolar, read-out: PERCENT INHIBITION @) was determined as 50%.

On to `O=C(O)c1cccc(NCc2cn(C(c3ccccc3)c3ccccc3)c3ccc(NC(=O)C4CCCC4)cc23)c1` [Example 65, 3-[({1-benzhydryl-5-[(cyclopentylcarbonyl)amino]-1H-indol-3-yl}methyl)amino]benzoic acid], for which the inhibition in vivo at 5 mg/kg in test [1] was determined as 2.84%. In addition, the inhibition at 50 µM on cPLA2 (CONCENTRATION 50 micromolar, read-out: PERCENT INHIBITION @) is 47%. For the same molecule, the inhibition at 72 µM on cPLA2 (CONCENTRATION 72 micromolar, read-out: PERCENT INHIBITION @) amounted to 50%. Moreover, at cPLA2 (read-out: PERCENT INHIBITION @), the inhibition at 80 µM came out at 50%.

As to `COc1cc(C(=O)NS(=O)(=O)C(F)(F)F)ccc1Cc1cn(C(c2ccccc2)c2ccccc2)c2ccc(NC(=O)OC3CCCC3)cc12` [Example 26, Cyclopentyl N-{1-benzhydryl-3-[2-methoxy-4-({[(trifluoromethyl)sulfonyl]amino}carbonyl)benzyl]-1H-indol-5-yl}carbamate], the inhibition in vivo at 5 mg/kg in test [1] turned out to be 25.3%. Further, on cPLA2 (read-out: PERCENT INHIBITION @), the inhibition at 2.4 µM amounted to 50% and the inhibition at 2.5 µM stood at 50%.

In the case of `O=C(O)/C=C/c1cn(C(c2ccccc2)c2ccccc2)c2ccc(NC(=O)C3CCCC3)cc12` [Example 86A, (E)-3-{1-benzhydryl-5-[(cyclopentylcarbonyl)amino]-1H-indol-3-yl}-2-propenoic acid], the inhibition in vivo at 5 mg/kg in test [1] was found to be 7.4%. In addition, the inhibition at 60 µM on cPLA2 (CONCENTRATION 60 micromolar, read-out: PERCENT INHIBITION @) came out at 50%. Further, on cPLA2 (CONCENTRATION 70 micromolar, read-out: PERCENT INHIBITION @), the inhibition at 70 µM was determined as 50%. The inhibition at 82 µM at cPLA2 (CONCENTRATION 82 micromolar, read-out: PERCENT INHIBITION @) is 50%. The inhibition at 118 µM on cPLA2 (CONCENTRATION 118 micromolar, read-out: PERCENT INHIBITION @) amounted to 50%.

As to `O=C(O)C(=O)c1cn(C(c2ccccc2)c2ccccc2)c2ccc(NC(=O)C3CCCC3)cc12` [Example 115], the entries for the “PERCENT INHIBITION” value in test [1] (2 mg/Kg) and in test [1] (10 mg/Kg) were 1.24% and 18.46%, respectively. Further, the results for the “PERCENT INHIBITION @” value at cPLA2 (CONCENTRATION 50 micromolar), on cPLA2 (CONCENTRATION 100 micromolar) and on cPLA2 (CONCENTRATION 250 micromolar) were 89%, 20% and 50%, respectively.

Turning to `O=C(Nc1cccc(C(=O)O)c1)C(=O)c1cn(Cc2ccc(OCc3ccccc3)c(OCc3ccccc3)c2)c2ccccc12` [Example 63, 3-[(2-{1-[3,4-bis(benzyloxy)benzyl]-1H-indol-3-yl}-2-oxoacetyl)amino]benzoic acid], the inhibition in vivo at 5 mg/kg in test [1] was 19.6%. At cPLA2 (read-out: PERCENT INHIBITION @), the inhibition at 2.5 µM worked out at 70% and the inhibition at 7 µM turned out to be 50%.

Take `O=C(Nc1ccc2c(c1)c(CNC(CO)C(=O)O)cn2C(c1ccccc1)c1ccccc1)C1CCCC1` (centres unmarked) [Example 68, 2-[({1-benzhydryl-5-[(cyclopentylcarbonyl)amino]-1H-indol-3-yl}methyl)amino]-3-hydroxypropanoic acid]: in test [1], the inhibition in vivo at 5 mg/kg was -4.3%. The inhibition at 100 µM at cPLA2 (CONCENTRATION 100 micromolar, read-out: PERCENT INHIBITION @) amounted to 9%. At cPLA2 (CONCENTRATION 400 micromolar, read-out: PERCENT INHIBITION @), the inhibition at 400 µM turned out to be 18%.
